Test results: the supplement of paper PMC10307832

Key:
Assay in all cases: relative viability (nuclei count vs DMSO), 5 days (fraction); higher = more cells survive
[1] = tested on: BEN
Outline: (§1)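 Five library-drug doses in √10 steps were combined with a fixed anchor-drug dose, or a single drug was given alone, by pin tool to lung cancer cell lines in 1536-well plates the day after seeding. Nuclei were stained and counted after 5 days. Relative viability is the nuclei count in treated wells over that in vehicle wells, taken as the median of duplicate plates.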

[2] = tested on: EKVX
Outline: as §1

[3] = tested on: HARA
Outline: as §1

[4] = tested on: HCC-366
Outline: as §1

[5] = tested on: HCC-827
Outline: as §1

[6] = tested on: LC-2-ad
Outline: as §1

[7] = tested on: LOU-NH91
Outline: as §1

[8] = tested on: NCI-H1355
Outline: as §1

[9] = tested on: NCI-H1395
Outline: as §1

[10] = tested on: NCI-H1437
Outline: as §1

[11] = tested on: NCI-H1734
Outline: as §1

[12] = tested on: NCI-H1792
Outline: as §1

[13] = tested on: NCI-H2009
Outline: as §1

[14] = tested on: NCI-H2087
Outline: as §1

[15] = tested on: NCI-H2170
Outline: as §1

[16] = tested on: NCI-H2228
Outline: as §1

[17] = tested on: NCI-H2342
Outline: as §1

[18] = tested on: NCI-H2405
Outline: as §1

[19] = tested on: NCI-H596
Outline: as §1

[20] = tested on: NCI-H647
Outline: as §1

[21] = tested on: NCI-H661
Outline: as §1

[22] = tested on: SK-LU-1
Outline: as §1

[23] = tested on: SK-MES-1
Outline: as §1

In the case of O=C(O)c1ccc(-c2c[nH]c3ncc(-c4ccccc4)cc23)cc1C1CCCC1 + N=C(N)NC(=N)NCCc1ccccc1 [Phenformin] (partner 250 µM), the relative viability ([1]; first compound 0.04 µM) is reported as 0.274, the relative viability ([1]; first compound 0.1265 µM) is reported as 0.283 and the relative viability ([1]; first compound 0.4 µM) is reported as 0.247. The relative viability ([1]; first compound 1.265 µM) was 0.246, the relative viability ([2]; first compound 0.04 µM) was 0.249 and the relative viability ([2]; first compound 0.1265 µM) was 0.225. For the same compound, the relative viability ([2]; first compound 0.4 µM) was 0.245, the relative viability ([2]; first compound 1.265 µM) was 0.219 and the relative viability ([3]; first compound 0.04 µM) was 0.469. For the same compound, the relative viability ([3]; first compound 0.1265 µM) was 0.479, the relative viability ([3]; first compound 0.4 µM) was 0.459 and the relative viability ([3]; first compound 1.265 µM) was 0.372. For the same compound, the relative viability ([4]; first compound 0.04 µM) was 0.686, the relative viability ([4]; first compound 0.1265 µM) was 0.631 and the relative viability ([4]; first compound 0.4 µM) was 0.607. It also gave a relative viability ([4]; first compound 1.265 µM) of 0.611, a relative viability ([5]; first compound 0.04 µM) of 0.406 and a relative viability ([5]; first compound 0.1265 µM) of 0.397. The relative viability ([5]; first compound 0.4 µM) was 0.43, the relative viability ([5]; first compound 1.265 µM) was 0.386 and the relative viability ([6]; first compound 0.04 µM) was 0.584. It also gave a relative viability ([6]; first compound 0.1265 µM) of 0.634, a relative viability ([6]; first compound 0.4 µM) of 0.536 and a relative viability ([6]; first compound 1.265 µM) of 0.494. The relative viability ([7]; first compound 0.04 µM) was 0.73, the relative viability ([7]; first compound 0.1265 µM) was 0.885 and the relative viability ([7]; first compound 0.4 µM) was 0.799. It also gave a relative viability ([7]; first compound 1.265 µM) of 0.751, a relative viability ([8]; first compound 0.04 µM) of 0.446 and a relative viability ([8]; first compound 0.1265 µM) of 0.462. The relative viability ([8]; first compound 0.4 µM) was 0.453, the relative viability ([8]; first compound 1.265 µM) was 0.276 and the relative viability ([9]; first compound 0.04 µM) was 0.452. For the same compound, the relative viability ([9]; first compound 0.1265 µM) was 0.44, the relative viability ([9]; first compound 0.4 µM) was 0.413 and the relative viability ([9]; first compound 1.265 µM) was 0.414. It also gave a relative viability ([10]; first compound 0.04 µM) of 0.295, a relative viability ([10]; first compound 0.1265 µM) of 0.298 and a relative viability ([10]; first compound 0.4 µM) of 0.319. It also gave a relative viability ([10]; first compound 1.265 µM) of 0.202, a relative viability ([11]; first compound 0.04 µM) of 0.419 and a relative viability ([11]; first compound 0.1265 µM) of 0.452. For the same compound, the relative viability ([11]; first compound 0.4 µM) was 0.371, the relative viability ([11]; first compound 1.265 µM) was 0.358 and the relative viability ([12]; first compound 0.1265 µM) was 0.475. The relative viability ([12]; first compound 0.4 µM) was 0.353, the relative viability ([12]; first compound 1.265 µM) was 0.413 and the relative viability ([13]; first compound 0.04 µM) was 0.519. It also gave a relative viability ([13]; first compound 0.1265 µM) of 0.533, a relative viability ([13]; first compound 0.4 µM) of 0.512 and a relative viability ([13]; first compound 1.265 µM) of 0.393. The relative viability ([14]; first compound 0.04 µM) was 0.472, the relative viability ([14]; first compound 0.1265 µM) was 0.461 and the relative viability ([14]; first compound 0.4 µM) was 0.397. The relative viability ([14]; first compound 1.265 µM) was 0.393, the relative viability ([15]; first compound 0.04 µM) was 0.434 and the relative viability ([15]; first compound 0.1265 µM) was 0.413. For the same compound, the relative viability ([15]; first compound 0.4 µM) was 0.459, the relative viability ([15]; first compound 1.265 µM) was 0.362 and the relative viability ([16]; first compound 0.04 µM) was 0.37. It also gave a relative viability ([16]; first compound 0.1265 µM) of 0.344, a relative viability ([16]; first compound 0.4 µM) of 0.349 and a relative viability ([16]; first compound 1.265 µM) of 0.245. For the same compound, the relative viability ([17]; first compound 0.04 µM) was 0.512, the relative viability ([17]; first compound 0.1265 µM) was 0.693 and the relative viability ([17]; first compound 0.4 µM) was 0.623. The relative viability ([17]; first compound 1.265 µM) was 0.491, the relative viability ([18]; first compound 0.04 µM) was 0.445 and the relative viability ([18]; first compound 0.1265 µM) was 0.442. It also gave a relative viability ([18]; first compound 0.4 µM) of 0.382, a relative viability ([18]; first compound 1.265 µM) of 0.383 and a relative viability ([19]; first compound 0.04 µM) of 0.772. For the same compound, the relative viability ([19]; first compound 0.1265 µM) was 0.808, the relative viability ([19]; first compound 0.4 µM) was 0.79 and the relative viability ([19]; first compound 1.265 µM) was 0.737. The relative viability ([20]; first compound 0.04 µM) was 0.611, the relative viability ([20]; first compound 0.1265 µM) was 0.598 and the relative viability ([20]; first compound 0.4 µM) was 0.478. For the same compound, the relative viability ([20]; first compound 1.265 µM) was 0.38, the relative viability ([21]; first compound 0.04 µM) was 0.292 and the relative viability ([21]; first compound 0.4 µM) was 0.285. It also gave a relative viability ([21]; first compound 1.265 µM) of 0.278, a relative viability ([22]; first compound 0.04 µM) of 0.537 and a relative viability ([22]; first compound 0.1265 µM) of 0.585. For the same compound, the relative viability ([22]; first compound 0.4 µM) was 0.459, the relative viability ([22]; first compound 1.265 µM) was 0.363 and the relative viability ([23]; first compound 0.04 µM) was 0.683. It also gave a relative viability ([23]; first compound 0.1265 µM) of 0.687, a relative viability ([23]; first compound 0.4 µM) of 0.637 and a relative viability ([23]; first compound 1.265 µM) of 0.447.
